# Experimental data published in patent publication US10259774B1, “Antimicrobials for preservation of home and personal care products” (GALAXY SURFACTANTS LTD., priority 2018, dated 2019).
# Key:
# [1] = comparison surfactants, conditions not given; cited from earlier work
# [2] = system: Escherichia coli ATCC 8739, Pseudomonas aeruginosa ATCC 15442, Staphylococcus aureus ATCC 6538, Propionibacterium acnes MTCC 1951, Candida albicans ATCC 10231 …; assay: Preservative challenge test according to PCPC protocol; assay type: cell-based, bacteria, yeast and mold
# Text: The preservative efficacy of the compounds of Formula I has been tested in surfactant formulations typically containing anionic surfactant with pH ranging for 4 to 8.0. The personal care and home care formulations (body wash, shampoo, skin-cream and dish wash) are preserved with 1.0 to 2.0% of compounds of Formula I. The details of formulations are given in Examples 4, 5, 6, 7, 8, 9, and 10. The above formulations pass the challenge test performed according to PCPC protocol using Escherichia coli ATCC 8739, Pseudomonas aeruginosa ATCC 15442 (Gram −ve bacteria), Staphylococcus aureus ATCC 6538, Propionibacterium acnes MTCC 1951, (Gram +ve) Candida albicans ATCC 10231, Malassezia furfur MTCC 1374 (yeast) and Aspergillus niger ATCC 16404 (mold) The formulations pass the challenge test criteria for both bacteria and fungi.
# The above formulations (Example 4, 5, 6, 7, 8, 9 & 10) pass the challenge test performed according to PCPC protocol using Escherichia coli ATCC 8739, Pseudomonas aeruginosa ATCC 15442 (Gram −ve bacteria), Staphylococcus aureus ATCC 6538, Propionibacterium acnes MTCC 1951, (Gram +ve) Candida albicans ATCC 10231, Malassezia furfur MTCC 1374 (yeast) and Aspergillus niger ATCC 16404 (mold).
molecule,measurement,setting,value
"CCCCCCCCCCCC[N+](CCC(=O)OC)(CCC(=O)OC)Cc1ccccc1.[Cl-] [N-Lauryl, N,N-Dimethyldipropionate Benzyl Ammonium Chloride]",MIC (%),S aureus,0.5%
same,MIC (%),E coli,0.3%
same,MIC (%),Pseudomonas sp,0.5%
same,MIC (%),P acne,0.4%
same,MIC (%),C. albicans,0.4%
same,MIC (%),M furfur,0.5%
same,MIC (%),Aspergillus niger,0.2%
CCCCCCCCCCCCOS(=O)(=O)[O-].[Na+] [sodium lauryl sulphate],CMC,[1],8.0 mmol/L
"N-Alkyl, N,N-dimethyl, N-benzyl ammonium chloride [Benzalkonium chloride]",challenge test,"[2]; 10% SLES preserved with 1% of the substance, PCPC protocol",failed to pass
same,antimicrobial activity in the presence of anionic surfactant,[2]; used at 10000 ppm,does not exhibit any antimicrobial activity
cocoamidopropyl betaine,CMC,[1],0.05 mmol/L
